These results are taken from ChEMBL document CHEMBL1201862, “PubChem BioAssay data set” (2004).

What is called AC50 is the concentration giving half of the maximal activity seen. One may read the Ki as the equilibrium dissociation constant of an inhibitor or competing ligand from its target. As a reminder, the CC50 is the concentration giving 50% cytotoxicity.

Test [1] concerns the target Beta-lactamase (Pseudomonas aeruginosa, UniProt Q79MP6).
In the next test the target is T1, Bcl-2-related protein A1 (Mus musculus, UniProt Q07440).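 Further: confirmatory dose–response counterscreen on Bfl-1, used to check hits from a UBC13 polyubiquitin inhibitor campaign.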
T1 sequence (Q07440 whole entry): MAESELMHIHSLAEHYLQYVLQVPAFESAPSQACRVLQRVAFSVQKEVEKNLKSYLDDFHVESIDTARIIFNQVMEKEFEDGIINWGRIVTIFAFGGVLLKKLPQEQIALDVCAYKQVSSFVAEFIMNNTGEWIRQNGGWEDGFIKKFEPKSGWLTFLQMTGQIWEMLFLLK
The class given is functional.

For test [2], the target named is Beta-lactamase (Salmonella choleraesuis (strain SC-B67), UniProt Q5J463).
Test [3] has as its target T2, Ubiquitin-conjugating enzyme E2 N (Homo sapiens, UniProt P61088).
T2 sequence (P61088 whole entry): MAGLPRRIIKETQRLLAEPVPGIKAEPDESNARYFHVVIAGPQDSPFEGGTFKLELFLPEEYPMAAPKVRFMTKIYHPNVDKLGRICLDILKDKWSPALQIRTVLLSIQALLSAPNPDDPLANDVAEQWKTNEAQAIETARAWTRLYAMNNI
It counts as functional.

For another test, the target named is Beta Lactamase (Pseudomonas aeruginosa, UniProt Q932Y6).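 Further: confirmatory high-throughput screen measuring VIM-2 metallo-beta-lactamase inhibition by epi-absorbance in dose response.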
The target of test [4] is T2, Ubiquitin-conjugating enzyme E2 N. It counts as functional. The source holds these as a separate data set.
The target of test [5] is E3 ubiquitin-protein ligase XIAP (Homo sapiens, UniProt P98170). The test is described as follows: Counter Screen using XIAP-Bir3 for Chemical Antagonists of Bir1/2 domains of IAP-family anti-apoptotic proteins. [Related pubchem assays (depositor defined):AID1018, AID1449, AID1514, AID1638, AID1749, AID1750, AID488957, AID488963]. (In general: The purpose of a counterscreen is to sort out artefacts and off-target activity.)

The target in test [6] is T3, Apoptotic protease-activating factor 1 (Homo sapiens, UniProt O14727).
T3 sequence (O14727 whole entry): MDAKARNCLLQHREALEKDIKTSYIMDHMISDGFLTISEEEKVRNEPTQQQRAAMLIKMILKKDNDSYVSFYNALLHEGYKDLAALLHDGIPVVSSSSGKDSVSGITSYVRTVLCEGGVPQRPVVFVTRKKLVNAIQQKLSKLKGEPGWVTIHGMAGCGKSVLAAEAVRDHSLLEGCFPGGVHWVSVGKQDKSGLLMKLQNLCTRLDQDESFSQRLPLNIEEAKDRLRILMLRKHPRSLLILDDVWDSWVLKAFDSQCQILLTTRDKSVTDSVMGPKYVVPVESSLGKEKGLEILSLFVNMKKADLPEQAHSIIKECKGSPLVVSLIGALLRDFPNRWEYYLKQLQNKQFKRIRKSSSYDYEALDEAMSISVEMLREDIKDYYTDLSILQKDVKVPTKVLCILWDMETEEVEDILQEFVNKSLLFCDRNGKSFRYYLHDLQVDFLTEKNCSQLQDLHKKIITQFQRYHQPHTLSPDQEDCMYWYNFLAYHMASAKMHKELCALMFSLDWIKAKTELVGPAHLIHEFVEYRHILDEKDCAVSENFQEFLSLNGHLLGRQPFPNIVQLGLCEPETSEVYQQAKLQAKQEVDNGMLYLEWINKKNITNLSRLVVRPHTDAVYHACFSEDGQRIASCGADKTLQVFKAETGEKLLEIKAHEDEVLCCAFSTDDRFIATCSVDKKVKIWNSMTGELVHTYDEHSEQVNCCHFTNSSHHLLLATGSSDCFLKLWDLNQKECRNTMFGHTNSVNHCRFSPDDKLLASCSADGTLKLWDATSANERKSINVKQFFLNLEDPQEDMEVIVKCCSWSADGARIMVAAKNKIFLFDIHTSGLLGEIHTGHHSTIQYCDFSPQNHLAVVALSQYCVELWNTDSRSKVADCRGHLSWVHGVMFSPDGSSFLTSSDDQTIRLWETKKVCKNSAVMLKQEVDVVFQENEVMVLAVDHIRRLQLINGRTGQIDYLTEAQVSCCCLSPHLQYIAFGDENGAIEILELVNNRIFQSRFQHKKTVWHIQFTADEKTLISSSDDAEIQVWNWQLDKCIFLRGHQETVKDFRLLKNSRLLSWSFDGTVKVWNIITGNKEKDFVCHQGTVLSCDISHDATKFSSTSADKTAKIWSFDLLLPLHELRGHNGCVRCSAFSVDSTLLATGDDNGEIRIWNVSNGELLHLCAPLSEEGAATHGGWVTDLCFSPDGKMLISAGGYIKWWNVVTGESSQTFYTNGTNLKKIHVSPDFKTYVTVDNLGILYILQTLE
The class given is functional.

The target in test [7] is T3, Apoptotic protease-activating factor 1. The test is described as follows: SAR analysis of small molecule inhibitors of Apaf-1 in a Fluorescent assay. The class given is functional. The conditions noted are these: read-out: IC50_Mean.
The target in test [8] is T4, Melanin-concentrating hormone receptor 1 (Homo sapiens, UniProt Q99705). The test is described as follows: Late-stage fluorescence-based counterscreen for antagonists of the G-protein coupled receptor 7 (GPR7): cell-based dose response assay to identify antagonists of the melanin-concentrating hormone receptor 1 (MCHR1) Set 6. It counts as functional.
Test [9] addresses T5, Neuropeptides B/W receptor type 1 (Homo sapiens, UniProt P48145). The test is described as follows: GPR7 antagonist potency, late-stage follow-up, cell-based, fluorescence, dose response, set 6 (AID 588583). It counts as functional.
Test [10] deals with Glycogen synthase kinase-3 beta (Homo sapiens, UniProt P49841). The test is described as follows: GSK3beta kinase inhibitors, dose response, biochemical, microfluidics, dry powder samples, set 2 (AID 623989). The class given is functional.
Test [11] addresses Glycogen synthase kinase-3 alpha (Homo sapiens, UniProt P49840). The test is described as follows: human GSK3 alpha kinase inhibition, dose response, selectivity assay for GSK3beta inhibitor project, biochemical, microfluidics, dry powder samples, set 2 (AID 623978). It counts as functional.
The target in test [12] is Cyclin-dependent kinase 19 (Homo sapiens, UniProt Q9BWU1). The test is described as follows: Navigating the Kinome. Panel member name: CDC2L6. It counts as functional.
Test [13] deals with High affinity nerve growth factor receptor (Homo sapiens, UniProt P04629). The class given is functional.
Test [14] addresses T3, Apoptotic protease-activating factor 1. The test is described as follows: SAR analysis of small molecule Activators of Apaf-1 in a Fluorescent assay - set 2. The class given is functional. The conditions noted are these: read-out: EC50_Mean.
The nature of test [15]: SAR analysis of small molecule activators of Apaf-1 using a LZ-Caspase-9/Caspase-3 Fluorescent Selectivity assay - Set 2. It counts as functional. To be noted: read-out: EC50_Mean.
Test [16] can be described thus: Vero cell cytotoxicity, dose response, cytotoxicity control for M. tuberculosis growth inhibitor project, Vero cells, purified and synthesized compounds, set 4 (AID 504854). It counts as functional. To be noted: Mycobacterium tuberculosis.
Test [17] can be described thus: Vero cell cytotoxicity, dose response, cytotoxicity control for M. tuberculosis growth inhibitor project, Vero cells, purified and synthesized compounds, set 5 (AID 504909). It counts as functional. The conditions noted are these: Mycobacterium tuberculosis.
Test [18] has as its target T4, Melanin-concentrating hormone receptor 1. The test is described as follows: Late-stage fluorescence-based counterscreen for antagonists of the G-protein coupled receptor 7 (GPR7): cell-based dose response assay to identify antagonists of the melanin-concentrating hormone receptor 1 (MCHR1) Set 5. It counts as functional.
Test [19] has as its target T5, Neuropeptides B/W receptor type 1. The test is described as follows: GPR7 antagonist potency, late-stage follow-up, cell-based, fluorescence, dose response, set 5 (AID 588566). The class given is functional.

Activity calls are given as the source filed them.

T5 sequence (P48145 whole entry): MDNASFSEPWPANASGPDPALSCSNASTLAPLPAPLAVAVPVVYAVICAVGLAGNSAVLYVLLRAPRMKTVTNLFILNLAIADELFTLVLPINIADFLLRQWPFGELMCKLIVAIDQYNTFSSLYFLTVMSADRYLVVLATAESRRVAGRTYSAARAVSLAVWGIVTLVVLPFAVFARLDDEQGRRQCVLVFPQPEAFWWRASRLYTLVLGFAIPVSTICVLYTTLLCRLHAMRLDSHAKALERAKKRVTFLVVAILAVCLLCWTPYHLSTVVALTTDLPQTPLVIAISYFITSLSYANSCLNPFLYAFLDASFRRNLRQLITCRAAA
T4 sequence (Q99705 whole entry): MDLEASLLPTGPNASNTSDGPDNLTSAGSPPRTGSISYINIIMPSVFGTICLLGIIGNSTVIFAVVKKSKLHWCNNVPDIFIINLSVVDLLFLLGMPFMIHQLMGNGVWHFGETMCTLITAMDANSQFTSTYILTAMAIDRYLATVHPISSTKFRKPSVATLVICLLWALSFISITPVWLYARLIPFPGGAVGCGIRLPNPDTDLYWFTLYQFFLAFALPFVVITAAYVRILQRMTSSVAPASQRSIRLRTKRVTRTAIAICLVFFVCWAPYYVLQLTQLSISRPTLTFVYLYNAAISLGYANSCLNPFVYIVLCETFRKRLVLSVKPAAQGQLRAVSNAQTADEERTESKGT
Chain of High affinity nerve growth factor receptor (P04629 whole entry): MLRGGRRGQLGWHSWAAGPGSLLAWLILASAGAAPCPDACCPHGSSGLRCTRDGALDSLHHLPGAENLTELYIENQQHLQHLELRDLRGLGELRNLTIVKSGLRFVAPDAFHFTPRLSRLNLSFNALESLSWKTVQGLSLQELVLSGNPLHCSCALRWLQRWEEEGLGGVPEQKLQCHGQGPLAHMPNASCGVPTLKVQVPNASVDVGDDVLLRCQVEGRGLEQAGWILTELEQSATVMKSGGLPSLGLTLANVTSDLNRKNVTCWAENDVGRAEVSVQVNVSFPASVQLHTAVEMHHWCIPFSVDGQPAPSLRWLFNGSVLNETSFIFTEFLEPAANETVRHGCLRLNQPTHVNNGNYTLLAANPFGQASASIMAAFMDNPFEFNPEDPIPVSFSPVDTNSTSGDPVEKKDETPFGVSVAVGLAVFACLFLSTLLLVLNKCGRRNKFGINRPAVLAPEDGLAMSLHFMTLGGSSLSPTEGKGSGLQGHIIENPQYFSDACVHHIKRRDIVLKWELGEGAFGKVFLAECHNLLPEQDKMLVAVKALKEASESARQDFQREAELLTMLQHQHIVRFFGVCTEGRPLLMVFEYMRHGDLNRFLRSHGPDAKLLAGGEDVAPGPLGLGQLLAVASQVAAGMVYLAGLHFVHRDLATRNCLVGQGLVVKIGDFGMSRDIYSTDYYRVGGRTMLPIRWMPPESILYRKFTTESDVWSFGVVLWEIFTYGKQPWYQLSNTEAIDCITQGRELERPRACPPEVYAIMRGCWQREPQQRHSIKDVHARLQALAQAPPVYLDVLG
Chain of E3 ubiquitin-protein ligase XIAP (P98170 whole entry): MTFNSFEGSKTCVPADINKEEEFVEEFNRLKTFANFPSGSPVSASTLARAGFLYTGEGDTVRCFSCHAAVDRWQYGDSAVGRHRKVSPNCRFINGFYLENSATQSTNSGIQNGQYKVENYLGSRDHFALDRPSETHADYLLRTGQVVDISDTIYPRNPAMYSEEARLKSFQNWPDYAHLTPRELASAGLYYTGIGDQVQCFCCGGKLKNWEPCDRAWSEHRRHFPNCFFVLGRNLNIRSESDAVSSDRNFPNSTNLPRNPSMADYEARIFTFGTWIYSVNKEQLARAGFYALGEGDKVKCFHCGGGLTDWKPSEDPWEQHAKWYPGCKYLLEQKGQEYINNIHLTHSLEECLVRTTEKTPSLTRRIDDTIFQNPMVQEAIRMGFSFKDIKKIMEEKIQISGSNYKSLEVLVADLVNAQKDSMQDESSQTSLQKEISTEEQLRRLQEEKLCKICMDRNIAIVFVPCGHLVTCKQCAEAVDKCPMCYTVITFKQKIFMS
Chain of Beta-lactamase (Salmonella choleraesuis (strain SC-B67), UniProt Q5J463) (Q5J463 whole entry): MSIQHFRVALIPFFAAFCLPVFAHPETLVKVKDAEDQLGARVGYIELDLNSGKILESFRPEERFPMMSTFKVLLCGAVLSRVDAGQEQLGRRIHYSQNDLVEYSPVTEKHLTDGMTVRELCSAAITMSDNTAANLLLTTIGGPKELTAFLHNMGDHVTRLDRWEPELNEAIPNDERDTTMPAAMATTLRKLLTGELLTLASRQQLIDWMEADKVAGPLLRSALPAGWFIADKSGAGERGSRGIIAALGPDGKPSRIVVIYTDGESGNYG
Chain of Glycogen synthase kinase-3 beta (P49841 whole entry): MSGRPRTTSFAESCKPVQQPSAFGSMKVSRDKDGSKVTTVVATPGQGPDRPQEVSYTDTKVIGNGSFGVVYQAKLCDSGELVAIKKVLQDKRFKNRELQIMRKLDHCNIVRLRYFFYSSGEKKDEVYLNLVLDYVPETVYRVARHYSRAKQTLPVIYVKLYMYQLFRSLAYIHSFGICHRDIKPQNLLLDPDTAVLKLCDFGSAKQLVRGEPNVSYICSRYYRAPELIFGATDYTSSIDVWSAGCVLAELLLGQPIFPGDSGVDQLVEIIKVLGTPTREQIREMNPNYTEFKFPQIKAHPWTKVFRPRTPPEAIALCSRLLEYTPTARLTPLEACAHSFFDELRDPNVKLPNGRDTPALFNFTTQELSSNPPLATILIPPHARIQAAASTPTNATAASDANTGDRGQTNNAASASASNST
Chain of Cyclin-dependent kinase 19 (Q9BWU1 whole entry): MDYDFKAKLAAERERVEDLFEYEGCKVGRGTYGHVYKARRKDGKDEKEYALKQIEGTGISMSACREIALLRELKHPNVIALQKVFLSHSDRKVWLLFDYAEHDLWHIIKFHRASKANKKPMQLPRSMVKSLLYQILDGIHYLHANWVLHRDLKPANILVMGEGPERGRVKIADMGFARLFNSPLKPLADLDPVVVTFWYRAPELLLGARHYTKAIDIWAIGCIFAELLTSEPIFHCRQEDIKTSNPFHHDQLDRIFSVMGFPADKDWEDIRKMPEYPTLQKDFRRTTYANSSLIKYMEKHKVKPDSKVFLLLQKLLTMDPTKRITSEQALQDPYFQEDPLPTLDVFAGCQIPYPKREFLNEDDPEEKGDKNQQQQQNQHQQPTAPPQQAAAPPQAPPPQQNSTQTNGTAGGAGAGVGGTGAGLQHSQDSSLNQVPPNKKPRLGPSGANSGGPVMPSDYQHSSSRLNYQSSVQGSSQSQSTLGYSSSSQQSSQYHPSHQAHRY
Chain of Beta-lactamase (Pseudomonas aeruginosa, UniProt Q79MP6) (Q79MP6 whole entry): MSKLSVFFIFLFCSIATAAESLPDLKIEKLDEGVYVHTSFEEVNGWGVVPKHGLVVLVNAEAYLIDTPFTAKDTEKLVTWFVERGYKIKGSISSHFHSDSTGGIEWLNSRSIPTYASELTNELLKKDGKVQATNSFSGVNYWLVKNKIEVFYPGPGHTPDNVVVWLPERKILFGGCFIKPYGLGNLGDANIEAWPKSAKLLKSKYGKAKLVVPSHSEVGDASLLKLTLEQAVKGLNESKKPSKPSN
Chain of Glycogen synthase kinase-3 alpha (P49840 whole entry): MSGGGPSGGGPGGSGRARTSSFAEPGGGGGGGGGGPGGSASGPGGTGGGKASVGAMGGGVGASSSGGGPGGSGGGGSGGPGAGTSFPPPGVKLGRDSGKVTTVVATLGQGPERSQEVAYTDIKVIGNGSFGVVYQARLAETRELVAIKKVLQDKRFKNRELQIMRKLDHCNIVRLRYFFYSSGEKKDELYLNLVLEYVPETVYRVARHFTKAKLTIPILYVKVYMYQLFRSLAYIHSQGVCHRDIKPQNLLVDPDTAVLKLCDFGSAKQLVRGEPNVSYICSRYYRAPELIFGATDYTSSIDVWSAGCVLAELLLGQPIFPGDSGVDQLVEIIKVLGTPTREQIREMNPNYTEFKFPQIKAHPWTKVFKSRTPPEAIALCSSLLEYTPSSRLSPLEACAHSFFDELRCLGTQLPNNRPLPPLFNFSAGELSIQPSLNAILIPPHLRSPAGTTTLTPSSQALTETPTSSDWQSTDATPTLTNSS
Chain of Beta Lactamase (Q932Y6 whole entry): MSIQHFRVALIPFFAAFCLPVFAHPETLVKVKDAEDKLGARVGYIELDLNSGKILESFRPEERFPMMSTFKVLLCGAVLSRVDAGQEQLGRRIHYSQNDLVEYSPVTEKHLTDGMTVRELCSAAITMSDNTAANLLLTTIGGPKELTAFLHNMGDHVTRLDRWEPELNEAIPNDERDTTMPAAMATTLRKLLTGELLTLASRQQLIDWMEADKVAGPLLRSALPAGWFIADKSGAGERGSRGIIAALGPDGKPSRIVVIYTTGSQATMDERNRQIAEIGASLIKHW

Regarding `CCN(CC)CCOC(=O)c1ccc(N/C=C(/C#N)c2nc(-c3cc4ccccc4oc3=O)cs2)cc1`, the IC50 on Beta-lactamase [1] was > 59.6 µM (inactive); at Bcl-2-related protein A1, 0.55 µM (active); on Beta-lactamase [2], > 59.6 µM (inactive); in test [3], 3.5 µM (active); at Beta Lactamase, > 59.6 µM (inactive); in test [4], 3.74 µM (active). Further, the IC50 in test [5] was > 20 µM (inactive); in [6], 4.12 µM (active); in test [7], 3.09 µM (active).

Consider `N#CC(c1ccc(F)cc1Cl)c1c(Cl)cnn(Cc2cccc3ccccc23)c1=O` (stereo unspecified), for which the IC50 in test [8] and in [9] was 1.71 µM (active) throughout.

For the compound `CCOc1ccccc1/C=N/NC(=O)c1nnn(-c2nonc2N)c1CN1CCCCCC1`, the AC50 in test [10] is < 0.016 µM (active); in test [11] it was 0.0219 µM (active).

Regarding `O=C(Nc1cccc(C(F)(F)F)c1)Nc1cc(Cl)ccc1O`, the inhibitory constant (Ki) in [12] is 20 µM (active); in test [13], 10 µM (active).

As for `O=C(O)C1CC(c2ccccc2Cl)=NO1` (stereo unspecified), the EC50 in [14] and in test [15] was > 100 µM (inactive) each time.

For `Cc1ccc(NC(=O)CSc2nc3ccccc3c(=O)[nH]2)cc1Cl`, the CC50 in [16] and in [17] was > 100 µM (active) each time.

With `COc1ccc(Oc2c(Cl)c(C(=O)O)nn(-c3ccc(C(C)C)cc3)c2=O)cc1`, the IC50 in test [18] and in test [19] was > 20 µM (inactive) each time.
